From ChEMBL document CHEMBL1136822, “Synthesis, antiviral activity and pharmacokinetics of P1/P1' substituted 3-aminoindazole cyclic urea HIV protease inhibitors” (Bioorg Med Chem Lett, 2003)

What was measured:
[1] = test system: Human immunodeficiency virus 1; experiment: Resistance factor of compound towards HIV-1 was measured as inhibitory concentration of compound required to inhibit viral RNA transcripts accumulation after infection in cells; format: functional
[2] = test system: MT2; experiment: Inhibitory concentration of compound against HIV V82F/[…] mutant in MT2 cells; format: functional; conditions: Homo sapiens
[3] = test system: MT2; experiment: Inhibitory concentration of compound against HIV […] mutant in MT2 cells; format: functional; conditions: Homo sapiens
[4] = Effect on increase in RNA IC90 value after HSA (45 mg/mL) and AAG (1 mg/mL) were determined in absence or presence of two plasma proteins (45 mg/mL human serum albumin and 1 mg/mL alpha-1-acid glycoprotein).; format: functional
[5] = test system: Human immunodeficiency virus 1; experiment: Inhibitory concentration of compound against HIV HXB2 strain; format: functional
[6] = species on record: Homo sapiens; experiment: Protein binding adjusted IC90s for the I84V mutant was determined; format: functional
[7] = test system: Human immunodeficiency virus 1; experiment: Inhibitory concentration of compound against HIV abbott mutant virus 25-fold resistant to ritonavir; format: functional
[8] = target: Human immunodeficiency virus type 1 protease (Human immunodeficiency virus 1, UniProt Q72874); experiment: Binding affinity against HIV-Protease was determined
[9] = Oral bioavailability in dog (dose 10 mg/kg); format: ADME, organism-based, Canis lupus familiaris; conditions: in vivo
[10] = Pharmacokinetic activity (Cmax) in dog; format: ADME, organism-based, Canis lupus familiaris; conditions: in vivo
[11] = 8 hour trough Blood level in dog was measured after administration of compound; format: ADME, organism-based, Canis lupus familiaris; conditions: read-out: C 8 h
[12] = Half life period in dog; format: ADME, organism-based, Canis lupus familiaris; conditions: in vivo
[13] = test system: Human immunodeficiency virus 1; experiment: Inhibitory concentration of compound against HIV vertex mutant virus 19-fold resistant to […]; format: functional
[14] = test system: Human immunodeficiency virus 1; experiment: Inhibitory concentration of compound against HIV vertex mutant virus 19-fold resistant to amprenavir; format: functional
[15] = Half life period (10 mg/kg) was determined in dog; format: ADME, organism-based, Canis lupus familiaris; conditions: in vivo
[16] = Pharmacokinetic activity (Cmax) (10 mg/kg) was determined in dog; format: ADME, organism-based, Canis lupus familiaris; parameters: dose 10 mg/kg; conditions: in vivo

SMILES	IC90 [1]	IC90 [2]	IC90 [3]	Fold shift [4]	IC90 [5]	IC90 [6]	IC90 [7]	Ki [8]	bioavailability [9]	Cmax [10]	concentration at 8 h [11]	half-life [12]	IC90 [13]	IC90 [14]	half-life [15]	Cmax [16]
CCCCN1C(=O)N(Cc2ccc3[nH]nc(N)c3c2)[C@H](Cc2ccc(CC)cc2)[C@H](O)[C@@H](O)[C@H]1Cc1ccc(CC)cc1	10 nM	> 1800 nM	260 nM	22	22 nM	220 nM	4030 nM	0.094 nM								
CCc1ccc(C[C@@H]2[C@H](O)[C@@H](O)[C@@H](Cc3ccc(CC)cc3)N(Cc3ccc4[nH]nc(N)c4c3)C(=O)N2Cc2ccccc2)cc1	19 nM	> 1600 nM	410 nM	13	81 nM	247 nM	12600 nM	0.072 nM								
CCCCN1C(=O)N(Cc2ccc3[nH]nc(N)c3c2)[C@H](Cc2ccccc2)[C@H](O)[C@@H](O)[C@H]1Cc1ccccc1	56 nM	1790 nM	390 nM	17	69 nM	952 nM	1470 nM	0.021 nM	57%	11.7 µM	7.2 µM	7.7 h	87 nM			
Nc1[nH]nc2ccc(CN3C(=O)N(Cc4ccccc4)[C@H](Cc4ccccc4)[C@H](O)[C@@H](O)[C@H]3Cc3ccccc3)cc12	62 nM	2100 nM	370 nM		92 nM	496 nM	1520 nM							257 nM		
CCCCN1C(=O)N(Cc2ccc3[nH]nc(N)c3c2)[C@H](Cc2cc(C)cc(C)c2)[C@H](O)[C@@H](O)[C@H]1Cc1cc(C)cc(C)c1	66 nM				56 nM		7540 nM	0.19 nM								
Cc1ccc(C[C@@H]2[C@H](O)[C@@H](O)[C@@H](Cc3ccc(C)cc3)N(Cc3ccc4[nH]nc(N)c4c3)C(=O)N2Cc2ccccc2)cc1	12 nM	> 1700 nM	310 nM	16	17 nM	192 nM	1880 nM	0.047 nM	29%		0.35 µM		24 nM		3.9 h	3.6 µM
Cc1cccc(C[C@@H]2[C@H](O)[C@@H](O)[C@@H](Cc3cccc(C)c3)N(Cc3ccc4[nH]nc(N)c4c3)C(=O)N2Cc2ccccc2)c1	25 nM	2680 nM	104 nM	12	26 nM	300 nM	1760 nM	0.062 nM	20%		0.35 µM	3.9 h				3.6 µM
Cc1cc(C)cc(C[C@@H]2[C@H](O)[C@@H](O)[C@@H](Cc3cc(C)cc(C)c3)N(Cc3ccc4[nH]nc(N)c4c3)C(=O)N2Cc2ccccc2)c1	50 nM			7	100 nM	350 nM	> 7300 nM	0.2 nM								
Nc1n[nH]c2ccc(CN3C(=O)N(Cc4ccccc4)[C@H](Cc4ccccc4)[C@H](O)[C@@H](O)[C@H]3Cc3ccccc3)cc12									60%	9.6 µM	2.8 µM				3.5 h	
CCCCN1C(=O)N(Cc2ccc3[nH]nc(N)c3c2)[C@H](Cc2ccc(C)cc2)[C@H](O)[C@@H](O)[C@H]1Cc1ccc(C)cc1	12 nM	1750 nM		35	16 nM	420 nM	1700 nM	0.037 nM	23%	1.2 µM	0.07 µM	1.6 h	7 nM			
CCCCN1C(=O)N(Cc2ccc3[nH]nc(N)c3c2)[C@H](Cc2cccc(C)c2)[C@H](O)[C@@H](O)[C@H]1Cc1cccc(C)c1	31 nM	1600 nM		25	54 nM	775 nM	1600 nM	0.045 nM								
